From patent publication US20080132577A1, “Use of agomelatine in obtaining medicaments intended for the treatment of smith-magenis syndrome” (LES LABORATOIRES SERVIER, priority 2006, published 2008)

Assays:
[1] = system: children with Smith-Magenis syndrome; test: Exploratory phase II clinical study in children with Smith-Magenis syndrome (actigraphy, Achenbach questionnaire); type: in vivo, human; conditions: agomelatine 1-5 mg/kg co-administered with acebutolol 10 mg/kg
Experimental: An exploratory phase II study was carried out in children with Smith-Magenis syndrome. Agomelatine 1-5 mg/kg was co-administered with acebutolol 10 mg/kg, a […]. The main analysis criteria were actigraphy parameters recorded over five periods of 30 consecutive days, after 30 days of treatment, and 3, 5 and 15 months of treatment, and also the Achenbach questionnaire, allowing the behaviour disorders to be assessed.
These major effects were carried over to the families, who, following the highly positive consequences of the treatment on family life, requested continuation of the treatment on a compassionate basis.

patients = test: Clinical trials of agomelatine: acceptability, tolerability and drug interactions; type: in vivo, human
From the text: In fact, agomelatine makes it possible to act simultaneously on the behaviour disorders and on the resynchronisation of disturbed circadian rhythms.

[2] = system: Smith-Magenis syndrome patients; conditions: evening exogenous melatonin with morning beta-adrenergic antagonists; cited from earlier work
[3] = actigraphy, up to 15 months of treatment

Row | Compound | behaviour (behaviour disorders, Achenbach questionnaire) [1] | clinical improvement found by a specialist [1] | sleep quality recorded [1] | duration of daytime naps [1, 3] | duration of night waking [1, 3] | frequency of night waking [1, 3] | drug interactions (patients; human, in vivo) | clinical and biological tolerability (patients; more than 4000 patients exposed in clinical trials) | activity in respect of the behaviour disorders [2]
1 | COc1ccc2cccc(CCNC(C)=O)c2c1 [agomelatine, N-[2-(7-methoxy-1-naphthyl)ethyl]acetamide] | Real progress in relation to behaviour | Major clinical improvement | a calm, deep sleep, less-broken nights and less-early waking in the morning | reduction in the duration of daytime naps | reduction | reduction | no drug interactions | excellent clinical and biological tolerability | –
2 | COc1ccc2[nH]cc(CCNC(C)=O)c2c1 [melatonin] | – | – | – | – | – | – | – | – | no activity
